Measured values published in PubChem BioAssay AID248 (DTP/NCI, 2004).
Several values for one entry are separate records, joined by “and”; a condition that tells them apart may be missing. Equal entries are not always repeated. Inconclusive results and toxic doses are left out. Rule as the data show it: active = T/C of 150% or more; inactive = T/C below 125%. Square brackets hold non-standard residues; d marks the D form. Peptide text beside a SMILES is read from it. * marks the point of attachment. ξ: configuration not given here. Cbz = O=C(OCc1ccccc1)*; ξP = O=C(O)C1CCCN1

System: L1210 leukemia ip in BDF1 mice, survival T/C
Experiment: NCI In Vivo Anticancer Drug Screen. Data for tumor model L1210 Leukemia (intraperitoneal) in B6D2F1 (BDF1) mice
Conditions: endpoint: mean survival time, higher = longer survival
In short: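 Read-out is survival time, reported as the treated-group measurement over the vehicle-control measurement.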

[1] = dose: 12.5 mg/kg/injection, schedule: Q01DX009 (ip), vehicle: Klucel (hydroxypropylcellulose) (HPC)
[2] = dose: 25.0 mg/kg/injection, schedule: Q01DX009 (ip), vehicle: Klucel (hydroxypropylcellulose) (HPC)
[3] = dose: 25.0 mg/kg/injection, schedule: Q04DX003 (ip), vehicle: Klucel (hydroxypropylcellulose) (HPC)
[4] = dose: 50.0 mg/kg/injection, schedule: Q01DX009 (ip), vehicle: Klucel (hydroxypropylcellulose) (HPC)
[5] = dose: 50.0 mg/kg/injection, schedule: Q04DX003 (ip), vehicle: Klucel (hydroxypropylcellulose) (HPC)
[6] = dose: 100.0 mg/kg/injection, schedule: Q04DX003 (ip), vehicle: saline
[7] = dose: 200.0 mg/kg/injection, schedule: Q04DX003 (ip), vehicle: saline
[8] = dose: 100.0 mg/kg/injection, schedule: Q04DX003 (ip), vehicle: Klucel (hydroxypropylcellulose) (HPC)
[9] = dose: 100.0 mg/kg/injection, schedule: Q01DX001 (ip), vehicle: carboxymethylcellulose (CMC)
[10] = dose: 200.0 mg/kg/injection, schedule: Q01DX001 (ip), vehicle: carboxymethylcellulose (CMC)
[11] = dose: 100.0 mg/kg/injection, schedule: Q01DX009 (ip), vehicle: Klucel (hydroxypropylcellulose) (HPC)
[12] = dose: 200.0 mg/kg/injection, schedule: Q01DX009 (ip), vehicle: Klucel (hydroxypropylcellulose) (HPC)
[13] = dose: 200.0 mg/kg/injection, schedule: Q04DX003 (ip), vehicle: Klucel (hydroxypropylcellulose) (HPC)
[14] = dose: 100.0 mg/kg/injection, schedule: Q04DX002 (ip), vehicle: Klucel (hydroxypropylcellulose) (HPC)
[15] = dose: 200.0 mg/kg/injection, schedule: Q04DX002 (ip), vehicle: Klucel (hydroxypropylcellulose) (HPC)
[16] = dose: 400.0 mg/kg/injection, schedule: Q04DX003 (ip), vehicle: Klucel (hydroxypropylcellulose) (HPC)
[17] = dose: 400.0 mg/kg/injection, schedule: Q04DX003 (ip), vehicle: saline
[18] = dose: 50.0 mg/kg/injection, schedule: Q01DX001 (ip), vehicle: saline

Measured: T/C

C/C(=C\c1ccccc1)[N+](=O)[O-]
inactive: dose: 1.0 mg/kg/injection, schedule: Q04DX003 (ip), vehicle: Klucel (hydroxypropylcellulose) (HPC) 106 % of control | dose: 4.0 mg/kg/injection, schedule: Q01DX009 (ip), vehicle: Klucel (hydroxypropylcellulose) (HPC) 104 % of control | dose: 8.0 mg/kg/injection, schedule: Q01DX009 (ip), vehicle: Klucel (hydroxypropylcellulose) (HPC) 89 % of control | [1] 98 % of control | dose: 12.5 mg/kg/injection, schedule: Q04DX003 (ip), vehicle: Klucel (hydroxypropylcellulose) (HPC) 101 % of control | dose: 16.0 mg/kg/injection, schedule: Q01DX009 (ip), vehicle: Klucel (hydroxypropylcellulose) (HPC) 107 % of control | dose: 20.0 mg/kg/injection, schedule: Q04DX003 (ip), vehicle: Klucel (hydroxypropylcellulose) (HPC) 101 % of control | [2] 102 % of control and 104 % of control | [3] 116 % of control | dose: 32.0 mg/kg/injection, schedule: Q01DX009 (ip), vehicle: Klucel (hydroxypropylcellulose) (HPC) 100 % of control | dose: 40.0 mg/kg/injection, schedule: Q04DX003 (ip), vehicle: Klucel (hydroxypropylcellulose) (HPC) 95 % of control | [4] 101 % of control and 113 % of control | [5] 106 % of control | dose: 64.0 mg/kg/injection, schedule: Q01DX009 (ip), vehicle: Klucel (hydroxypropylcellulose) (HPC) 110 % of control | dose: 80.0 mg/kg/injection, schedule: Q04DX003 (ip), vehicle: Klucel (hydroxypropylcellulose) (HPC) 100 % of control

C=CCOC(=O)COCC(=O)OCC=C
inactive: [6] 97 % of control | [7] 88 % of control

C=C1C(=O)OC2/C=C(\C)C(O)C/C=C(/C)CCC12 (centres undefined)
inactive: [3] 96 % of control | [5] 102 % of control | [8] 100 % of control

O=C(O)c1ccncc1C(=O)O
inactive: dose: 50.0 mg/kg/injection, schedule: Q01DX001 (ip), vehicle: carboxymethylcellulose (CMC) 87 % of control | [9] 90 % of control | [10] 87 % of control

O=C(NCC(=O)N1CCCC1C(=O)O)OCc1ccccc1 (stereo not drawn) (Cbz-Gly-[ξP]-OH)
inactive: [4] 93 % of control | [5] 96 % of control | [11] 97 % of control | [8] 91 % of control | [12] 93 % of control | [13] 93 % of control

NC(CCCC(N)C(=O)O)C(=O)O (centres undefined)
inactive: dose: 12.5 mg/kg/injection, schedule: Q04DX002 (ip), vehicle: saline 103 % of control | dose: 25.0 mg/kg/injection, schedule: Q04DX002 (ip), vehicle: saline 100 % of control | dose: 50.0 mg/kg/injection, schedule: Q04DX002 (ip), vehicle: Klucel (hydroxypropylcellulose) (HPC) 96 % of control | dose: 50.0 mg/kg/injection, schedule: Q04DX002 (ip), vehicle: saline 93 % of control | [14] 101 % of control | [15] 93 % of control

Cc1cnc(NS(=O)(=O)c2ccc(N)cc2)nc1-c1ccccc1O
inactive: [14] 98 % of control | [15] 98 % of control | dose: 400.0 mg/kg/injection, schedule: Q04DX002 (ip), vehicle: Klucel (hydroxypropylcellulose) (HPC) 91 % of control

Clc1ccc(/C(=[C](\[Hg]/[C](=C(\c2ccccc2)c2ccc(Cl)cc2)c2ccccc2)c2ccccc2)c2ccccc2)cc1
inactive: [11] 96 % of control | [8] 101 % of control | [12] 102 % of control | [13] 107 % of control | dose: 400.0 mg/kg/injection, schedule: Q01DX009 (ip), vehicle: Klucel (hydroxypropylcellulose) (HPC) 96 % of control | [16] 102 % of control

Cc1ncc(CO)c(CO)c1O
inactive: [6] 101 % of control | [7] 100 % of control | [17] 96 % of control

S=c1cc(-c2ccc(Cl)cc2)ss1
inactive: dose: 50.0 mg/kg/injection, schedule: Q01DX009 (ip), vehicle: saline 93 % of control | dose: 100.0 mg/kg/injection, schedule: Q01DX009 (ip), vehicle: saline 93 % of control and 90 % of control | [6] 92 % of control | dose: 200.0 mg/kg/injection, schedule: Q01DX009 (ip), vehicle: saline 95 % of control and 90 % of control | [7] 100 % of control | dose: 300.0 mg/kg/injection, schedule: Q01DX009 (ip), vehicle: saline 95 % of control | dose: 400.0 mg/kg/injection, schedule: Q01DX009 (ip), vehicle: saline 95 % of control

NC(=O)N/N=C/c1[nH]c(=S)[nH]c(=O)c1Cc1ccccc1
inactive: dose: 100.0 mg/kg/injection, schedule: Q04DX003 (ip), vehicle: saline with Tween-80 101 % of control | dose: 200.0 mg/kg/injection, schedule: Q04DX003 (ip), vehicle: saline with Tween-80 94 % of control | dose: 400.0 mg/kg/injection, schedule: Q04DX003 (ip), vehicle: saline with Tween-80 97 % of control

O=[N+]([O-])c1ccc(O)c(N=Cc2ccccc2O)c1
inactive: [9] 102 % of control | [10] 96 % of control | dose: 400.0 mg/kg/injection, schedule: Q01DX001 (ip), vehicle: carboxymethylcellulose (CMC) 96 % of control

CC1(C)C2CCC1(C)C(/C=N/NC(N)=O)C2 (centres undefined)
inactive: dose: 100.0 mg/kg/injection, schedule: Q01DX001 (ip), vehicle: Klucel (hydroxypropylcellulose) (HPC) 94 % of control | dose: 200.0 mg/kg/injection, schedule: Q01DX001 (ip), vehicle: Klucel (hydroxypropylcellulose) (HPC) 102 % of control | dose: 400.0 mg/kg/injection, schedule: Q01DX001 (ip), vehicle: Klucel (hydroxypropylcellulose) (HPC) 105 % of control

CCOC(=O)NP(=O)(NC(=O)OCC)NC(=O)OCC
inactive: [18] 106 % of control | dose: 100.0 mg/kg/injection, schedule: Q01DX001 (ip), vehicle: saline 104 % of control | dose: 200.0 mg/kg/injection, schedule: Q01DX001 (ip), vehicle: saline 93 % of control | dose: 400.0 mg/kg/injection, schedule: Q01DX001 (ip), vehicle: saline 106 % of control

CC(=N)c1ccc(C)cc1
inactive: dose: 6.25 mg/kg/injection, schedule: Q01DX009 (ip), vehicle: saline with Tween-80 94 % of control | dose: 12.5 mg/kg/injection, schedule: Q01DX009 (ip), vehicle: saline with Tween-80 96 % of control | dose: 25.0 mg/kg/injection, schedule: Q01DX009 (ip), vehicle: saline with Tween-80 102 % of control

CC1=C/C(=N\N2CCOCC2)C(C(O)(C(F)(F)F)C(F)(F)F)C(C)(C)C1 (centres undefined)
inactive: [6] 98 % of control | [7] 98 % of control | [17] 96 % of control

C[S+](C)CC(=O)c1ccc(Br)cc1
inactive: [8] 97 % of control | [13] 95 % of control | [16] 101 % of control

NNC(=O)c1ccc(Cl)cc1Cl
inactive: dose: 6.25 mg/kg/injection, schedule: Q04DX003 (ip), vehicle: saline sonified 97 % of control | [1] 96 % of control | dose: 12.5 mg/kg/injection, schedule: Q04DX003 (ip), vehicle: saline sonified 101 % of control | [2] 106 % of control | dose: 25.0 mg/kg/injection, schedule: Q04DX003 (ip), vehicle: saline sonified 95 % of control

O=S1C=C(c2ccc(Cl)cc2)OC1 (centres undefined)
inactive: dose: 12.0 mg/kg/injection, schedule: Q01DX001 (ip), vehicle: saline 102 % of control | dose: 25.0 mg/kg/injection, schedule: Q01DX001 (ip), vehicle: saline 107 % of control | [18] 107 % of control
